Assay results published in PMC6600671, “Design and Synthesis of Indoleamine 2,3-Dioxygenase 1 Inhibitors and Evaluation of Their Use as Anti-Tumor Agents” (Molecules, 2019).
“And” between values parts separate entries of the source, which are not always exact repeats. Identical values can stand only once. “Also recorded” adds a separate entry of the source. Like-named read-outs stand apart in the source and are kept apart here. Each block holds one compound with its values, some of them ahead of it.

What was measured:
IDO1 = settings: cited from earlier work
rhTDO = rhTDO (Homo sapiens, UniProt P48775); assay: Enzyme-based TDO activity assay (kynurenine absorbance at 492 nm); format: biochemical; settings: for inhibition at 50 µM: shown when calculated IC50 >50 μM, read-out: TDO inhibition rate (%) at 50 μM
Sequence of rhTDO (P48775 whole entry): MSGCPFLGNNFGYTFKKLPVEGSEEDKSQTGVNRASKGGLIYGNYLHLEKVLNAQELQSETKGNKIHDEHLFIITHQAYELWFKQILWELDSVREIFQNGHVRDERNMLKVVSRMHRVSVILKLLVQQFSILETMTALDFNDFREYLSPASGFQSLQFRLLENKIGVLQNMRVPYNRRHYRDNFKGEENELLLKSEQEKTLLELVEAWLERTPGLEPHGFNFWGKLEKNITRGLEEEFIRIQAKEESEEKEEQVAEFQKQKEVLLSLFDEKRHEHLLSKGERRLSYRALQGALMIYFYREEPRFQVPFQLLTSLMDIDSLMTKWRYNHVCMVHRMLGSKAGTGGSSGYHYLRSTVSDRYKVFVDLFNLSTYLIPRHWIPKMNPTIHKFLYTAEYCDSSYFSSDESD
Experimental: (§1) The compounds on IDO1 or TDO activity were determined as follows: A standard reaction mixture (100 μL) containing 100 mM potassium phosphate buffer (pH 6.5), 40 mM ascorbic acid (neutralized with NaOH), 200 μg/mL catalase, 20 μM methylene blue and 0.05 μM rhIDO1 or rhTDO was added to the solution containing the substrate L-tryptophan and the test sample at a determined concentration. […] The yellow pigment derived from kynurenine was measured at 492 nm using a SYNERGY-H1 microplate reader (Biotek Instruments, Inc., Winooski, VT, USA). IC50 was analyzed using the GraphPad Prism 8.0 software (GraphPad Software, San Diego, CA, USA).

[1] = Body weight and white blood cells in B16F10 xenograft mice; format: in vivo; settings: 30 or 60 mg/kg/day oral or i.p.
Experimental: (§2) The mouse melanoma cells B16F10 were cultured and harvested in saline. At day 0 of the experiment, 1 × 10^6 cells were injected subcutaneously into mice, and treatment was initiated at day 1 following the mice enrolled randomly in control and experimental groups. For control group, 0.5% CMCNa was orally administered every day. Compound DX-03-12 was dissolved in 0.5% CMC for oral treatment or dissolved in saline for intraperitoneal treatment. When the mice were sacrificed, the tumors were stripped and weighted. […] The statistical analysis was performed with GraphPad Prism 8.0 software and the significance level was evaluated with a one-way ANOVA model.

rhIDO1 = rhIDO1 (Homo sapiens, UniProt P14902); assay: Enzyme-based IDO1 activity assay (kynurenine absorbance at 492 nm); format: biochemical; settings: for IC50: rhIDO1 0.05 μM, 37 °C, 45 min, read-out: IDO IC50; for inhibition at 50 µM: shown when calculated IC50 >50 μM, read-out: IDO inhibition rate (%) at 50 μM
Sequence of rhIDO1 (P14902 whole entry): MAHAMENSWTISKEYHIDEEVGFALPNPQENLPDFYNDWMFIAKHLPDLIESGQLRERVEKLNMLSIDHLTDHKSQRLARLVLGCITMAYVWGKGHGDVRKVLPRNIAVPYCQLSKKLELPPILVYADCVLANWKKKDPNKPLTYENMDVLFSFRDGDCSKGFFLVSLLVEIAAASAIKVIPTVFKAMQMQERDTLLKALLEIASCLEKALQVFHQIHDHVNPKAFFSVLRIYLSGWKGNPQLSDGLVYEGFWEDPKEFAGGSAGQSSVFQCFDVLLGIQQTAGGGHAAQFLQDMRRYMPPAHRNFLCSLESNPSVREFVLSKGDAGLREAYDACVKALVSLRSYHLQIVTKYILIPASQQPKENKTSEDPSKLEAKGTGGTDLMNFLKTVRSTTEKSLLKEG
Experimental: as §1

[2] = test system: mouse melanoma cells B16F10; assay: In vivo anti-tumor efficacy, B16F10 subcutaneous xenograft model; parameters: species or system mice; settings: 60 mg/kg/day, 19 days treatment
Experimental: C57BL/6 mice were obtained from Beijing Vital River Laboratory Animal Technology Co., Ltd. (Beijing Vital River Laboratory Animal Technology Co., Ltd, Beijing, China). Studies involving mice were approved by the Experimental Animal Management and Welfare Committee at the Institute of Materia Medica, Peking Union Medical College.
as §2

[3] = Single dose pharmacokinetic study in male ICR mice; format: in vivo; settings: for half-life: read-out: t1/2β (converted)
Experimental: The animal Care and Welfare Committee of Institute of Materia Medica, Chinese Academy of Medical Sciences approved all animal care, housing, and laboratory procedures. Male ICR mice were used in the single dose pharmacokinetic studies. Compound DX-03-12 was prepared as 3 mg/mL suspension with 0.5% CMC (containing 0.3% Tween 80) for oral use and was formulated as 3 mg/mL solution with 5% DMSO in saline for intravenous injection. Twenty mice were divided into two groups, 10 in each group. After fasting 12 h with free access to water, mice were treated with a 3 mg/kg i.v. or 30 mg/kg oral dose of compound DX-03-12. Blood samples (50 µL) were collected at 5, 15, 30 min, 1, 2, 4, 6, 8, 12 and 24 h after oral administration and 2, 5, 15, 30 min, 1, 2, 4, 6, 8, 12 and 24 h after intravenous injection. After centrifugation, the plasma samples (15 µL) were precipitated by five volumes of acetonitrile. The supernatant were analyzed by liquid chromatography/tandem mass spectrometry (Agilent Technologies, Santa Clara, CA, USA) with a Zobax C18 column (50 mm × 2.1 mm, 3.5 µm). Compound detection was performed with the mass spectrometer in MRM (multiple reaction monitoring, Agilent Technologies, Santa Clara, CA, USA) negative ionization mode. The selected reaction monitoring transitions were m/z 348.5→160 for compound DX-03-12. The pharmacokinetic parameters were calculated with WinNonlin software V6.3 using non-compartmental analysis (Pharsight Corporation, Mountain View, CA, USA).

MCF7 = assay: Cell viability MTT assay, 72 h; format: cell-based; settings: Homo sapiens; for inhibition at 50 µM: shown when calculated IC50 >50 μM, read-out: MCF7 inhibition rate (%) at 50 μM
Experimental: (§3) B16-F10 mouse melanoma cells, NCI-H460 human lung cancer cell line and MCF7 were obtained from American Type Culture Collection (ATCC). All the cell lines were cultured with Dulbecco’ modified Eagle’s medium (DMEM) (Invitrogen Corporation, Waltham, MA, USA) supplemented with 10% fetal bovine serum (FBS) (Hyclone, Waltham, MA, USA) and 1% penicillin streptomycin (Invitrogen) at 37 °C in 5% CO2.
(§4) The in vitro inhibitory effects of the compounds were measured by MTT assay. Briefly, different kinds of cells were plated in 96-well plates at a density of 2000/well. After attachment for overnight at 37 °C, the cells were treated with the compounds at various concentrations. After 72 h culture, the MTT reagent was added to each well, and plates were incubated for another 4 h at 37 °C. Then, the blue-purple crystal formamidine was dissolved in DMSO after discarding the supernatant. Samples were measured using microplate reader at a wavelength of 570 nm (Biotek Instruments, Inc., Winooski, VT, USA). IC50 values were calculated with GraphPad Prism 8.0 software.

[4] = test system: NCI-H460 human lung cancer cell line; assay: Cell viability MTT assay, 72 h; format: cell-based; settings: for inhibition at 50 µM: shown when calculated IC50 >50 μM, read-out: H460 inhibition rate (%) at 50 μM
Experimental: as §3, §4

pathway = settings: reported value; cited from earlier work
[5] = Figure 1, reported IDO1 inhibitors
[6] = mouse, plasma, PO 30 mg/kg, male ICR mice
[7] = mouse, plasma, iv 3 mg/kg, male ICR mice

SMILES: Cc1ccc(-c2csc3ncc(C(=O)NCCc4cccc(Cl)c4)n23)cc1 [AMCL-17g]
- IC50 (IDO1; reported value): 0.077 µM

SMILES: Cc1ccc(NC(=O)Nc2cc([C@H]3C[C@H]3C(=O)O)ccc2N(CC(C)C)CC(C)C)cc1 [BMS-978587]
- IC50 (IDO1; [5]): 0.0071 µM

SMILES: C[C@@H](C(=O)Nc1ccc(Cl)cc1)C1CCC(c2ccnc3ccc(F)cc23)CC1 (some centres unmarked) [BMS-986205]
- IC50 (IDO1; [5]): 0.0017 µM

- TDO inhibition, in words (rhTDO): marginal
- inhibition at 50 µM (rhTDO): 36.4%
- IC50 (rhIDO1): 0.3 µM
- t1/2β ([3]; PO 30 mg/kg, male ICR mice, 30 mg/kg): 4.6 h and 4.61 h
- Vss ([3]; iv 3 mg/kg, male ICR mice, 3 mg/kg): 10.1 L/kg
- plasma clearance as % of mouse hepatic blood flow ([3]; iv 3 mg/kg, hepatic blood flow 90 mL/min/kg): ~36%
- Vd ([3]; male, ICR, mouse, plasma, iv, 3 mg/kg, iv 3 mg/kg, male ICR mice, read-out: Vss): 10 L/kg
- half-life ([3]; male, ICR, mouse, plasma, iv, 3 mg/kg, iv 3 mg/kg, male ICR mice): 3.49 h
- bioavailability ([3]; male, ICR, mouse, plasma, oral, 30 mg/kg, PO 30 mg/kg vs iv 3 mg/kg, male ICR mice, read-out: F% (oral bioavailability)): ~96%
- half-life ([3]; male, ICR, mouse, plasma, po, 30 mg/kg, PO 30 mg/kg, male ICR mice): ~4.6 h
- AUC(0-inf) [3, 6]: 13100 ng·h/mL
- AUC(0-t) [3, 6]: 12900 ng·h/mL
- Tmax [3, 6]: 1 h
- AUC(0-inf) [3, 7]: 1500 ng·h/mL
- AUC(0-t) [3, 7]: 1350 ng·h/mL
- Tmax [3, 7]: 0.033 h
- clearance [3, 7]: 33.3 mL/min/kg
- Cmax ([3]; mouse, PO 30 mg/kg, male ICR mice, plasma): 2960 ng/mL
- Cmax ([3]; mouse, iv 3 mg/kg, male ICR mice, plasma): 2140 ng/mL
SMILES: O=S(=O)(NCCCOc1ccccc1-c1cnc[nH]1)C(F)(F)F [DX-03-12, N-(3-(2-(1H-imidazol-5-yl)phenoxy)propyl)-1,1,1-trifluoromethane sulfonamide]
- effect on body weight of the mice [1]: no obvious weight loss; also recorded: no obvious effect
- effect on peripheral white blood cells [1]: no obvious effect
- decrease in tumor weight (tumor growth inhibition) vs control ([2]; i.p.): 72.3%
- decrease in tumor weight (tumor growth inhibition) vs control ([2]; oral): 72.2%
- inhibition at 50 µM (MCF7): 6.6%
- inhibition at 50 µM [4]: 19.3%

- TDO inhibition, in words (rhTDO): marginal
- inhibition at 50 µM (rhTDO): 38.9%
- IC50 (rhIDO1): 0.5 µM
- IC50 (MCF7; unit inferred, read-out: MCF7 IC50 or %): 21.4 µM
- IC50 ([4]; unit inferred, read-out: H460 IC50 or %): 13.8 µM
SMILES: O=C(NCCCOc1ccccc1-c1cnc[nH]1)Nc1ccc(C(F)(F)F)cc1 [DX-03-13, 1-(3-(2-(1H-imidazol-5-yl)phenoxy)propyl)-3-(4-(trifluoromethyl)phenyl)urea]

- inhibition at 50 µM (rhTDO): 26.5%
- inhibition at 50 µM (rhIDO1): 46.2%
- IC50 (MCF7; read-out: MCF7 IC50): 8.53 µM
- IC50 ([4]; read-out: H460 IC50): 12 µM
SMILES: COc1ccc(Cl)cc1-c1cn(Cc2ccc(C(F)(F)F)cc2)cn1 [DX-04-01, 4-(5-chloro-2-methoxyphenyl)-1-(4-(trifluoromethyl)benzyl)-1H-imidazole]

- inhibition at 50 µM (rhTDO): 18%
- inhibition at 50 µM (rhIDO1): 9.7%
- IC50 (MCF7; read-out: MCF7 IC50): 35.7 µM
- IC50 ([4]; read-out: H460 IC50): 7.69 µM
SMILES: Oc1ccc(Cl)cc1-c1cn(Cc2ccc(C(F)(F)F)cc2)cn1 [DX-04-02, 4-chloro-2-(1-(4-(trifluoromethyl)benzyl)-1H-imidazol-4-yl)phenol]

- inhibition at 50 µM (rhTDO): 22.4%
- IDO1 inhibition, in words (rhIDO1): moderate
- IC50 (rhIDO1): 23 µM
- IC50 (MCF7; read-out: MCF7 IC50): 42.6 µM
- IC50 ([4]; read-out: H460 IC50): 22.9 µM
SMILES: Oc1ccc(Cl)cc1-c1cn(Cc2ccc(C(F)(F)F)cc2)nn1 [DX-04-05, 4-chloro-2-(1-(4-(trifluoromethyl)benzyl)-1H-1,2,3-triazol-4-yl)phenol]

- inhibition at 50 µM (rhTDO): 23.6%
- inhibition at 50 µM (rhIDO1): 13.5%
- IC50 (MCF7; read-out: MCF7 IC50): 49.3 µM
- IC50 ([4]; read-out: H460 IC50): 48.4 µM
SMILES: COc1ccc(Cl)cc1-c1cn(Cc2ccc(C(F)(F)F)cc2)nn1 [DX-04-06, 4-(5-chloro-2-methoxyphenyl)-1-(4-(trifluoromethyl)benzyl)-1H-1,2,3-triazole]

- inhibition at 50 µM (rhTDO): 21.4%
- inhibition at 50 µM (rhIDO1): 38.2%
- IC50 (MCF7; read-out: MCF7 IC50): 12.3 µM
- IC50 ([4]; read-out: H460 IC50): 27.4 µM
SMILES: Oc1ccc(Cl)cc1-c1nn[nH]c1-c1ccc(C(F)(F)F)cc1 [DX-04-07, 4-chloro-2-(5-(4-(trifluoromethyl)phenyl)-1H-1,2,3-triazol-4-yl)phenol]

- inhibition at 50 µM (rhTDO): 11.2%
- inhibition at 50 µM (rhIDO1): 21.2%
SMILES: COc1ccc(Cl)cc1-c1nn[nH]c1-c1ccc(C(F)(F)F)cc1 [DX-04-08, 4-(5-chloro-2-methoxyphenyl)-5-(4-(trifluoromethyl)phenyl)-1H-1,2,3-triazole]
- inhibition at 50 µM (MCF7): 24.9%
- inhibition at 50 µM [4]: 7.5%

SMILES: O=C1c2ccccc2-n2c1nc1ccccc1c2=O [Tryptanthrin]
- IC50 (IDO1; [5]): 0.534 µM

SMILES: Cn1cc(C[C@@H](N)C(=O)O)c2ccccc21 [indoximod]
- IC50 (pathway): 0.45 µM
